Tests used:
[1] = tested on: Dopamine MAB FAM–BHQ-1 (DNA, aptamer) ACGCCAGTTTGAAGGTTCGTTCGCAGGTGTGGAGTGACGT; test: fluorescence melting; settings: 1x PBS, 2 mM MgCl2; derived from two Tm (44.8 ± 0, 37.7 ± 0.1); 50 µM dopamine, pH 8.0
[2] = tested on: Dopamine DBS BHQ-1–Cy3 (DNA, aptamer) AAATACAACAAGAAAAAACTCTCGGGACGACGACCAGTTTGAAGGTTCGTTCGCAGGTGTGGAGTGACGTCGTCCC; test: fluorescence strand-displacement titration; settings: 1x PBS, 2 mM MgCl2; apparent; pH 8.0, 25 °C; displaced 42-nt 5'-Cy3 strand, 1 eq
[3] = tested on: Dopamine DBS Cy3–BHQ-1 (Int.) (DNA, aptamer) AAATACAACAAGAAAAAACTCTCGGGACGACGACCAGTTTGAAGGTTCGTTCGCAGGTGTGGAGTGACGTCGTCCC; test: fluorescence strand-displacement titration; settings: 1x PBS, 2 mM MgCl2; apparent; pH 8.0, 25 °C; displaced 42-nt strand, internal BHQ-1, 4 eq
[4] = tested on: Dopamine DBS Cy3/BHQ-1 (P3) (DNA, aptamer) AAATACAACAAGAAAAAACTCTCGGGACGACGCCAGTTTGAAGGTTCGTTCGCAGGTGTGGAGTGACGTCGTCCC; test: fluorescence melting; settings: 1x PBS, 2 mM MgCl2; pH 8.0; 50 µM dopamine; derived from two Tm (50.3, 50.1); displacement strand 1:4
[5] = tested on: Dopamine DBS Cy3–IABkFQ (DNA, aptamer) AAATACAACAAGAAAAAACTCTCGGGACGACGACCAGTTTGAAGGTTCGTTCGCAGGTGTGGAGTGACGTCGTCCC; test: fluorescence strand-displacement titration; settings: 1x PBS, 2 mM MgCl2; apparent; pH 8.0, 25 °C; displaced 42-nt 5'-IABkFQ strand, 4 eq
[6] = tested on: Dopamine DBS FAM(+T)/BHQ-1 (DNA, aptamer, 6-FAM-modified dT (click, i6-FAMK) at 33) AAATACAACAAGAAAAAACTCTCGGGACGACGTCCAGTTTGAAGGTTCGTTCGCAGGTGTGGAGTGACGTCGTCCC …; test: fluorescence melting; settings: 1x PBS, 2 mM MgCl2; pH 8.0; 50 µM dopamine; derived from two Tm (49.1, 48.9); displacement strand 1:4
[7] = tested on: Dopamine DBS Cy3–BHQ-1 (Term.) (DNA, aptamer) AAATACAACAAGAAAAAACTCTCGGGACGACGACCAGTTTGAAGGTTCGTTCGCAGGTGTGGAGTGACGTCGTCCC; test: fluorescence strand-displacement titration; settings: 1x PBS, 2 mM MgCl2; apparent; pH 8.0, 25 °C; displaced 43-nt strand, 5'-BHQ-1 plus T, 4 eq
[8] = tested on: Dopamine DBS Cy3(+T)/BHQ-1 (int.) (DNA, aptamer) AAATACAACAAGAAAAAACTCTCGGGACGACGTCCAGTTTGAAGGTTCGTTCGCAGGTGTGGAGTGACGTCGTCCC; test: fluorescence melting; settings: 1x PBS, 2 mM MgCl2; pH 8.0; 50 µM dopamine; derived from two Tm (50.3, 49.9); displacement strand 1:4
[9] = tested on: Dopamine DBS Cy3–BHQ-1 (Position 2) (DNA, aptamer) AAATACAACAAGAAAAAACTCTCGGGACGACGACCAGTTTGAAGGTTCGTTCGCAGGTGTGGAGTGACGTCGTCCC; test: fluorescence strand-displacement titration; settings: 1x PBS, 2 mM MgCl2; apparent; pH 8.0, 25 °C; displaced 42-nt strand, internal BHQ-1 (position 2), 4 eq
[10] = tested on: Dopamine MAB Cy3–BHQ-2 (DNA, aptamer) ACGCCAGTTTGAAGGTTCGTTCGCAGGTGTGGAGTGACGT; test: fluorescence quenching titration (molecular aptamer beacon); settings: 1x PBS, 2 mM MgCl2; apparent; pH 8.0, 25 °C
[11] = tested on: Dopamine DBS Cy3/BHQ-1 (int.) (DNA, aptamer) AAATACAACAAGAAAAAACTCTCGGGACGACGCCAGTTTGAAGGTTCGTTCGCAGGTGTGGAGTGACGTCGTCCC; test: fluorescence melting; settings: 1x PBS, 2 mM MgCl2; pH 8.0; 50 µM dopamine; derived from two Tm (50.9, 50.4); displacement strand 1:4
[12] = tested on: Dopamine DBS Cy3(+T)/BHQ-1 (DNA, aptamer) AAATACAACAAGAAAAAACTCTCGGGACGACGTCCAGTTTGAAGGTTCGTTCGCAGGTGTGGAGTGACGTCGTCCC; test: fluorescence melting; settings: 1x PBS, 2 mM MgCl2; pH 8.0; 50 µM dopamine; derived from two Tm (51.6, 50.9); displacement strand 1:4
[13] = tested on: Dopamine DBS Cy3/Cy5 – No (position 3) (DNA, aptamer) AAATACAACAAGAAAAAACTCTCGGGACGACGACCAGTTTGAAGGTTCGTTCGCAGGTGTGGAGTGACGTCGTCCC; test: fluorescence strand-displacement titration; settings: 1x PBS, 2 mM MgCl2; apparent; pH 8.0, 25 °C; displaced 42-nt 3'-biotin strand without quencher; 565 nm readout
[14] = tested on: Dopamine DBS Cy3(+T)–BHQ-1 (DNA, aptamer) AAATACAACAAGAAAAAACTCTCGGGACGACGTACCAGTTTGAAGGTTCGTTCGCAGGTGTGGAGTGACGTCGTCCC; test: fluorescence strand-displacement titration; settings: 1x PBS, 2 mM MgCl2; apparent; pH 8.0, 25 °C; displaced 42-nt 5'-BHQ-1 strand, 4 eq
[15] = tested on: Dopamine DBS Cy3(+T)–BHQ-1 Internal (DNA, aptamer) AAATACAACAAGAAAAAACTCTCGGGACGACGTACCAGTTTGAAGGTTCGTTCGCAGGTGTGGAGTGACGTCGTCCC; test: fluorescence strand-displacement titration; settings: 1x PBS, 2 mM MgCl2; apparent; pH 8.0, 25 °C; displaced 42-nt strand, internal BHQ-1, 4 eq

- Tm [1]: -7.1 °C
- Kd [2]: 95.6 ± 6.7 µM
- Kd [3]: 34.0 ± 3.3 µM
- Tm [4]: -0.2 °C
- Kd [5]: 85.0 ± 15.6 µM
- Tm [6]: -0.2 °C
- Kd [7]: 142.9 ± 11.7 µM
- Tm [8]: -0.4 °C
- Kd [9]: 2.2 ± 0.7 µM
- Kd [10]: 12.4 ± 2.0 µM
- Tm [11]: -0.5 °C
- Tm [12]: -0.7 °C
- Kd [13]: 9.9 ± 3.6 µM
- Kd [14]: 76.7 ± 5.5 µM
- Kd [15]: 17.3 ± 1.3 µM
Structure (SMILES): NCCc1ccc(O)c(O)c1

From publication PMC12700101 (2025)
